# Literature values, collected in patent US20240287072A1, “SOLID STATE FORMS OF LUMATEPERONE SALTS AND PROCESSES FOR PREPARATION OF LUMATEPERONE AND SALTS THEREOF” (TEVA PHARMACEUTICALS INTERNATIONAL GMBH, priority 2018, published 2024).
# Where a name gives a salt, the structure may show the parent alone.
# Assays:
# [1] = hydrochloride salt disclosed in U.S. Pat. No. 7,183,282
# [2] = hydrochloride salt disclosed in U.S. Pat. No. 7,183,282; remark: listed apart in the source
# [3] = free base form, oily, sticky solid
SMILES,hygroscopicity [1],stability [2],solubility [3]
CN1CCN2c3c(cccc31)[C@@H]1CN(CCCC(=O)c3ccc(F)cc3)CC[C@@H]12 [hydrochloride salt of lumateperone],hygroscopic,poor,–
"CN1CCN2c3c(cccc31)[C@@H]1CN(CCCC(=O)c3ccc(F)cc3)CC[C@@H]12 [lumateperone, 1-(4-fluorophenyl)-4-((6bR, 10aS)-3-methyl-2,3,6b,9,10,10a-hexahydro-1H-pyrido[3′,4′:4,5]pyrrolo[1,2,3-de]quinoxalin-8(7H)-yl)butan-1-one]",–,–,poor
